{"source": "patent US12241084B2", "about": "“Methods for efficient generation of GABAergic interneurons from pluripotent stem cells” (The McLean Hospital Corporation, priority 2013, dated 2025)", "molecules": {"B1": {"name": "FGF8: fibroblast growth factor 8 protein (SEQ ID NO: 1), activator of FGF8 signaling (protein, listed as Homo sapiens)", "chain": "MAEDGDPFAKLIVETDTFGSRVRVRGAETGLYICMNKKGKLIAKSNGKGKDCVFTEIVLENNYTALQNAKYEGWYMAFTRKGRPRKGSKTRQHQREVHFMKRLPRGHHTTEQSLRFEFLNYPPFTRSLRGSQRTWAPEPR"}}, "key": {"[1]": {"system": "AMPA/kainate-type glutamate receptors", "assay": "NBQX inhibition of sEPSC in grafted cells", "design": "species or system human", "details": "10 μM NBQX"}, "H9 cells [2]": {"system": "H9 cells", "assay": "MGE derivation from differentiating hPSCs (Nkx2.1 immunocytochemistry, cell counting, FACS)", "type": "cell-based, human", "details": "for MGE specification: treatment starting at day 0, flow cytometry; for Nkx2.2+/total cells: n=4", "method": "Human PSC cells (H9 ESCs (WA09, WiCell, Madison, WI, passage 45-55), H7 ESC (WA07, WiCell, passage 41-51) and iPSC2497 (a kind gift from Dr. Fred Gage, [14], passage 30-40) were maintained on Matrigel (BD, San Hose, CA) in mTeSR media (Invitrogen, Calsbad, CA) with 10 ng/ml bFGF (Peprotech, Rocky Hill, NJ), and passaged using Dispase (Stem Cell Technologies, Vancouver, BC, Canada). For differentiation, PSCs were trypsinized and grown as floating aggregates in low adherent flasks in KSR media (20% knockout serum replacement, DMEM, 2 mM L-glutamine and 10 μM β-mercaptoethanol (all from Invitrogen)). Rock inhibitor (Y-27632, 10 μM, Tocris, Bristol, United Kingdom) was added on the first day of differentiation. After two weeks of floating culture, cells were transferred to polyornithine (PLO; […]; Sigma, St. Louis, MO) and fibronectin (FN; […]; Sigma, St. Louis, MO) coated surfaces. For neural induction, cells were treated with LDN193189 (100 nM, Stemgent, Cambridge, MA) from d0 to d14 and with SB431542 (10 μM, Tocris) from d0 to d7 [25]. For MGE induction, cells were treated with IWP2 (5 μM, EMD Millipore) from d0 to d7, with SAG (0.1 µM, EMD Millipore) from d0 to d21, and with FGF8 (100 ng/ml, Peprotech) from d8 to d21. After 3 weeks of differentiation, cells were trypsinized and droplets of 10,000 cells/μl transferred to PLO/FN-coated coverslips in differentiation media (N3 media with 10 ng/ml GDNF (Peprotech), 10 ng/ml BDNF (Peprotech) and 2.5 μM DAPT (Tocris)) for further differentiation and maturation.\nDifferentiated cells were trypsinized and fixed in Fix/Perm solution (BD) for 30 min., and incubated with blocking buffer (PBS with 0.1 mg/ml BSA and 0.1% Saponin (both from Sigma, St. Louis, MO)) for 10 minutes. Blocked cells were incubated with primary antibody (anti-Nkx2.1; Epitomics) in blocking buffer for 30 minutes. After washing with PBS, Alexa 647-conjugated secondary antibodies (Invitrogen) were added (1:1000) and incubated for another 15 minutes. Some samples were incubated only with secondary antibody as control. After washing with PBS, cells were suspended in blocking buffer and analyzed using a FACSAria (BD Biosciences, San Jose, CA). Flowjo (Tree Star, Ashland, Or) software was used to analyze raw data. Ten thousand cells were used per analysis.\nFor immunofluorescence staining, fixed cells or tissue sections were incubated with blocking buffer (PBS, 10% normal donkey serum (NDS)) containing 0.1% Triton for 10 minutes. Cells were then incubated overnight at 4° C. with primary antibodies diluted in PBS containing 2% NDS. The primary antibody list can be found in table 1. After rinsing with PBS, samples were incubated with fluorescent dye-labeled secondary antibodies (Alexa 488- Alexa 594- or Alexa 647-labeled IgG; Invitrogen, Carlsbad, CA) in PBS containing 2% NDS for 30 minutes at room temperature. After rinsing with PBS, Hoechst 33342 ([…]) was used for counterstaining, and coverslips/tissues sections were mounted onto slides in Mowiol 4-88 (Calbiochem, Gibbstown, NJ). Confocal analysis was performed using an Olympus DSU Spinning Disc Confocal on an IX81 inverted microscope (Center Valley, PA).\nCells were counted using the StereoInvestigator image capture equipment and software (Microbright Field, Williston, VT). For counting of cells on cover slips, an optical fractionator probe was used with a 500 μm×500 µm grid size and 100 μm×[…] counting frame (>40 counting sites with >1000 total cells counted per sample) at 40× magnification. Coverslips from 3-4 independent differentiations were used for analysis. For statistical analysis, we performed t-test (alpha=0.05) comparing control vs. sample using Prism6 software (Graph Pad)."}, "[3]": {"system": "voltage-gated Na+ channels", "type": "cell-based, human"}, "differentiating ES cells": {"system": "differentiating ES cells", "assay": "Real time PCR analysis of differentiating ES cells", "type": "cell-based, human", "method": "Total RNA was prepared using Trizol (Invitrogen) and Purelink RNA mini kit (Invitrogen). cDNA from total RNA was generated using the SuperScript™ II RT (Invitrogen, Carlsbad, CA) and oligo (dT) primers. For quantitative analysis of the expression level of mRNAs, real-time PCR analyses were performed using the DNA engine Opticon™ (MJ Research, Waltham, MA) and SYBR green I (Molecular Probes, OR). Primers were designed using the MacVector software (Oxford Molecular Ltd.: primers sequences are available upon request). PCR were performed in 25 μl containing […] of each primer, 0.5×SYBR Green I (Molecular Probes), and 1 μl of cDNA. Fifty cycles consisting of 95° C. for 30 sec., 55° C. for 30 sec., 72° C. for 30 sec., and 79° C. for 5 sec. were performed. Primer dimers were melted at 79° C. before measuring the fluorescent signals after each cycle. The mRNA expression level for each gene was normalized against that of the GAPDH gene. The relative values were calculated by setting the normalized value of control as 1."}, "H9 cells [4]": {"system": "H9 cells", "assay": "MGE derivation from differentiating hPSCs (Nkx2.1 immunocytochemistry, cell counting, FACS)", "type": "cell-based, human"}, "[5]": {"details": "SHH activation during early differentiation"}}, "note": "“Also recorded” adds a separate entry of the source.", "data": [{"molecule": "NS(=O)(=O)c1cccc2c1c([N+](=O)[O-])cc1nc(O)c(O)nc12", "note": "[NBQX]", "values": [{"measurement": "inhibition of spontaneous excitatory postsynaptic currents", "setting": "[1]", "value": "inhibited sEPSC completely"}]}, {"molecule": "Cc1ccc2nc(NC(=O)CSc3nc4c(c(=O)n3-c3ccccc3)SCC4)sc2c1", "note": "[IWP2]", "values": [{"measurement": "MGE specification", "setting": "H9 cells [2]", "value": 5.16, "unit": "%"}]}, {"molecule": "NC1=N[C@H](O)[C@H]2[C@H]3O[C@]4(O)O[C@@H]([C@@H](O)[C@@]2(N1)[C@@H]4O)[C@]3(O)CO", "note": "[tetrodotoxin]", "values": [{"measurement": "block of transient (rapidly desensitizing) inward currents", "setting": "[3]", "value": "completely blocked; also recorded: selectively blocked transient component"}]}, {"molecule": "CNC1CCC(N(Cc2cccc(-c3ccncc3)c2)C(=O)c2sc3ccccc3c2Cl)CC1", "note": "(stereo not drawn) [SAG]", "values": [{"measurement": "expression of isl1", "setting": "H9 cells [2]; 10 nM vs 100 nM SAG", "value": "no significant difference"}, {"measurement": "induction of the MGE phenotype", "setting": "H9 cells [2]; 100 nM SAG, H9 cells, 25 days of differentiation", "value": "significantly higher induction of the MGE phenotype"}, {"measurement": "MGE specification", "setting": "H9 cells [2]", "value": 0.79, "unit": "%"}, {"measurement": "Gli1 expression", "setting": "differentiating ES cells; [5]", "value": "strong induction of Gli1"}, {"measurement": "Gli3 expression", "setting": "differentiating ES cells; [5]", "value": "strong Gli3 expression reduction"}, {"measurement": "FGF15/19 expression", "setting": "differentiating ES cells; early SHH activation", "value": "induced the expression of FGF15/19"}, {"measurement": "MGE specification", "setting": "H9 cells [4]; 10 nM SAG, H9 cells, 25 days of differentiation", "value": "modest increase in MGE specification"}, {"measurement": "Nkx2.1 level / MGE derivation", "setting": "H9 cells [4]; SAG treatment in the 3rd week of differentiation", "value": "increased Nkx2.1 level mildly but significantly; also recorded: further enhanced MGE derivation"}]}, {"molecule": "FGF19: exogenously applied FGF19, caudalizing signal", "values": [{"measurement": "Nkx2.2+/total cells", "setting": "H9 cells [2]", "value": "4.19+0.77%"}, {"measurement": "FGF8 expression", "setting": "differentiating ES cells; exogenous application of FGF19", "value": "no effect on FGF8 expression; also recorded: does not affect FGF8 expression"}, {"measurement": "CGE identity", "setting": "H9 cells [4]; FGF19 applied exogenously instead of FGF8, 3 weeks of differentiation", "value": "most of the cells taking up CGE identity; also recorded: induces CGE phenotype"}]}, {"molecule": "B1", "values": [{"measurement": "MGE cells by FACS", "setting": "H9 cells [2]; early SHH activation with exogenous FGF8, multiple hPSCs", "value": "> 80", "unit": "%"}, {"measurement": "Nkx2.2+/total cells", "setting": "H9 cells [2]", "value": "0.61+0.38%"}, {"measurement": "MGE differentiation vs CGE differentiation", "setting": "H9 cells [2]; treatment in the 2nd and/or 3rd week of differentiation", "value": "significantly increased MGE differentiation at the expense of CGE differentiation; also recorded: further induced MGE phenotype at the expense of the CGE phenotype; also recorded: induces MGE phenotype"}, {"measurement": "FGF19 expression", "setting": "differentiating ES cells; exogenous application of FGF8", "value": "increase FGF19 expression mildly but significantly; also recorded: increases FGF19 expression"}]}]}
